This passage reports LC retention time results from the RepoRT retention time repository (doi:10.1016/j.jchromb.2020.122105).

Conditions in all cases: stereoisomer not certain
Data set [1] in a line: RP, Waters CORTECS T3, 100 × 2.1 mm, 2.7 µm, 0.3 mL/min, estimated dead time 0.73 min; A: water + 0.1% formic acid, pH 3; B: methanol + 0.1% formic acid, pH 3; gradient (min/%B) 0/5 5/5 25/100 30/100 30.1/5 35/5.
A short description of data set [2]: RP, Waters CORTECS T3, 100 × 2.1 mm, 2.7 µm, 0.3 mL/min, estimated dead time 0.73 min; A: water + 0.1% formic acid, pH 3; B: methanol + 0.1% formic acid, pH 3; gradient (min/%B) 0/0 5/0 25/100 30/100 30.1/0 35/0.
Data set [3] is described as follows: RP, Waters CORTECS T3, 100 × 2.1 mm, 2.7 µm, 0.2 mL/min, estimated dead time 1.1 min; A: water + 0.1% formic acid, pH 3; B: methanol + 0.1% formic acid, pH 3; gradient (min/%B) 0/0 1/0 6/5 30/100 35/100 35.1/0 40/0.
Data set [4] can be described thus: RP, Waters CORTECS T3, 100 × 2.1 mm, 2.7 µm, 0.1 mL/min, estimated dead time 2.2 min; A: water + 0.1% formic acid, pH 3; B: methanol + 0.1% formic acid, pH 3; gradient (min/%B) 0/0 1/0 6/5 30/100 35/100 35.1/0 40/0.
A short description of data set [5]: RP, Waters CORTECS T3, 100 × 2.1 mm, 2.7 µm, 0.15 mL/min, estimated dead time 1.5 min; A: water + 0.1% formic acid, pH 3; B: methanol + 0.1% formic acid, pH 3; gradient (min/%B) 0/0 1/0 6/5 30/100 35/100 35.1/0 40/0.
Data set [6] is described as follows: RP, Waters CORTECS T3, 100 × 2.1 mm, 2.7 µm, 0.3 mL/min, estimated dead time 0.73 min; A: water + 0.1% formic acid, pH 3; B: methanol + 0.1% formic acid, pH 3; gradient (min/%B) 0/0 1/0 6/5 30/100 35/100 35.1/0 40/0.
Data set [7] in a line: RP, Waters CORTECS T3, 100 × 2.1 mm, 2.7 µm, 0.25 mL/min, estimated dead time 0.88 min; A: water + 0.1% formic acid, pH 3; B: methanol + 0.1% formic acid, pH 3; gradient (min/%B) 0/0 1/0 6/5 30/100 35/100 35.1/0 40/0.
A short description of data set [8]: RP, Waters CORTECS T3, 100 × 2.1 mm, 2.7 µm, 0.1 mL/min, estimated dead time 2.2 min; A: water + 0.1% formic acid, pH 3; B: methanol + 0.1% formic acid, pH 3; gradient (min/%B) 0/5 5/5 25/95 25.1/100 35/100 35.1/5 45/5.
Data set [9] is described as follows: RP, Thermo Scientific Hypercarb, 150 × 2.1 mm, 5 µm, 0.1 mL/min, estimated dead time 3.3 min; A: water + 0.1% formic acid, pH 3; B: methanol + 0.1% formic acid, pH 3; gradient (min/%B) 0/5 5/5 20/100 35/100 35.1/5 45/5.
A short description of data set [10]: RP, Waters CORTECS T3, 100 × 2.1 mm, 2.7 µm, 0.3 mL/min, estimated dead time 0.73 min; A: water + 0.1% formic acid, pH 3; B: methanol + 0.1% formic acid, pH 3; gradient (min/%B) 0/5 5/5 25/95 25.1/100 35/100 35.1/5 45/5.
Data set [11] can be described thus: RP, Waters ACQUITY UPLC BEH C18, 100 × 2.1 mm, 1.7 µm, 0.1 mL/min, estimated dead time 2.2 min; A: water + 0.1% formic acid, pH 3; B: methanol + 0.1% formic acid, pH 3; gradient (min/%B) 0/5 5/5 25/100 30/100 30.1/5 35/5.
The nature of data set [12]: RP, Waters CORTECS T3, 100 × 2.1 mm, 2.7 µm, 0.2 mL/min, estimated dead time 1.1 min; A: water + 0.045% formic acid + 0.11% ammonium hydroxide, pH 7; B: methanol; gradient (min/%B) 0/5 5/5 25/95 25.1/100 35/100 35.1/5 45/5.
A short description of data set [13]: RP, Waters ACQUITY UPLC BEH C18, 100 × 2.1 mm, 1.7 µm, 0.1 mL/min, estimated dead time 2.2 min; A: water + 0.1% formic acid, pH 3; B: methanol + 0.1% formic acid, pH 3; gradient (min/%B) 0/5 5/5 25/95 25.1/100 35/100 35.1/5 45/5.
Assay in data set [14]: as above
The source holds these as a separate data set.

Data set [15] in a line: RP, Waters ACQUITY UPLC BEH C18, 100 × 2.1 mm, 1.7 µm, 0.1 mL/min, estimated dead time 2.2 min; A: water + 0.045% formic acid + 0.11% ammonium hydroxide, pH 7; B: methanol; gradient (min/%B) 0/5 5/5 25/95 25.1/100 35/100 35.1/5 45/5.
Data set [16] in a line: RP, Waters ACQUITY UPLC BEH C18, 100 × 2.1 mm, 1.7 µm, 0.2 mL/min, estimated dead time 1.1 min; A: water + 0.025% formic acid + 20 mM ammonium acetate + 0.055% ammonium hydroxide, pH 7; B: methanol; gradient (min/%B) 0/5 5/5 25/100 30/100 30.1/5 35/5.
A short description of data set [17]: HILIC, Merck SeQuant ZIC-HILIC, 150 × 2.1 mm, 5 µm, 0.75 mL/min, estimated dead time 0.44 min; A: water + 10 mM ammonium formate, pH 6; B: 5% water + 95% acetonitrile + 10 mM ammonium formate, pH 6; gradient (min/%B) 0/95 5/95 20/57 25/57 30/95 40/95.
The nature of data set [18]: HILIC, Merck SeQuant ZIC-HILIC, 150 × 2.1 mm, 5 µm, 0.75 mL/min, estimated dead time 0.44 min; A: water + 0.1% acetic acid + 10 mM ammonium acetate, pH 4; B: 5% water + 95% acetonitrile + 0.1% acetic acid + 10 mM ammonium acetate, pH 4; gradient (min/%B) 0/95 5/95 20/57 25/57 30/95 40/95.
Data set [19] can be described thus: HILIC, Waters XBridge BEH Amide, 100 × 2.1 mm, 2.5 µm, 0.5 mL/min, estimated dead time 0.44 min; A: water + 0.1% acetic acid + 10 mM ammonium acetate, pH 4; B: 5% water + 95% acetonitrile + 0.1% acetic acid + 10 mM ammonium acetate, pH 4; gradient (min/%B) 0/95 5/95 20/57 25/57 30/95 40/95.
A short description of data set [20]: RP, Waters CORTECS T3, 100 × 2.1 mm, 2.7 µm, 0.3 mL/min, estimated dead time 0.73 min; A: water + 0.1% formic acid, pH 3; B: methanol + 0.1% formic acid, pH 3; gradient (min/%B) 0/0 5/0 25/100 30/100 30.1/0 35/0. This is another data set of the same source.
A short description of data set [21]: RP, Waters CORTECS T3, 100 × 2.1 mm, 2.7 µm, 0.2 mL/min, estimated dead time 1.1 min; A: water + 0.1% formic acid, pH 3; B: methanol + 0.1% formic acid, pH 3; gradient (min/%B) 0/0 1/0 6/5 30/100 35/100 35.1/0 40/0. This is another data set of the same source.
Data set [22] can be described thus: RP, Waters CORTECS T3, 100 × 2.1 mm, 2.7 µm, 0.3 mL/min, estimated dead time 0.73 min; A: water + 0.1% formic acid, pH 3; B: methanol + 0.1% formic acid, pH 3; gradient (min/%B) 0/0 1/0 6/5 30/100 35/100 35.1/0 40/0. This is another data set of the same source.
The nature of data set [23]: RP, Waters CORTECS T3, 100 × 2.1 mm, 2.7 µm, 0.2 mL/min, estimated dead time 1.1 min; A: water + 0.1% formic acid, pH 3; B: methanol + 0.1% formic acid, pH 3; gradient (min/%B) 0/5 5/5 25/95 25.1/100 35/100 35.1/5 45/5.
A short description of data set [24]: RP, Waters ACQUITY UPLC BEH C18, 100 × 2.1 mm, 1.7 µm, 0.2 mL/min, estimated dead time 1.1 min; A: water + 0.1% formic acid, pH 3; B: methanol + 0.1% formic acid, pH 3; gradient (min/%B) 0/5 5/5 25/100 30/100 30.1/5 35/5.
The nature of data set [25]: RP, Waters CORTECS T3, 100 × 2.1 mm, 2.7 µm, 0.25 mL/min, estimated dead time 0.88 min; A: water + 0.1% formic acid, pH 3; B: methanol + 0.1% formic acid, pH 3; gradient (min/%B) 0/5 5/5 25/95 25.1/100 35/100 35.1/5 45/5.
Data set [26] can be described thus: RP, Waters ACQUITY UPLC BEH C18, 100 × 2.1 mm, 1.7 µm, 0.1 mL/min, estimated dead time 2.2 min; A: water + 0.1% formic acid, pH 3; B: methanol + 0.1% formic acid, pH 3; gradient (min/%B) 0/5 5/5 25/95 25.1/100 35/100 35.1/5 45/5. The source holds these as a separate data set.
A short description of data set [27]: RP, Waters ACQUITY UPLC BEH C18, 100 × 2.1 mm, 1.7 µm, 0.2 mL/min, estimated dead time 1.1 min; A: water + 0.025% formic acid + 20 mM ammonium acetate + 0.055% ammonium hydroxide, pH 7; B: methanol; gradient (min/%B) 0/5 5/5 25/100 30/100 30.1/5 35/5. The source holds these as a separate data set.

`Cn1cnc2c(ncn2C2OC(CO)C(O)C2O)c1=N` (stereo not drawn) [1-METHYLADENOSINE]: the LC retention time in [1] was 5.02 min; in data set [2], 8.57 min; in data set [3], 9.42 min; in [4], 7.08 min; in data set [5] it was 10.7 min; in data set [6], 8.04 min. Also, the LC retention time was 8.69 min in [7]; 10.9 min in [8]; 21.8 min in [9]; 4.96 min in [10]; 10.5 min in data set [11]; 10.7 min in data set [12]. The LC retention time in data set [13] was 10.6 min; in [14], 2.66 min; in data set [15], 13.5 min; in data set [16] it was 10.5 min; in data set [17], 1.56 min; in data set [18], 1.51 min. The LC retention time in data set [19] is 2.22 min.
Consider `CSCC1OC(n2cnc3c(N)ncnc32)C(O)C1O` (stereo not drawn) [5'-METHYLTHIOADENOSINE], for which the LC retention time in [1] was 8.5 min; in data set [2] it was 9.9 min; in data set [3] it was 11.3 min; in data set [4], 9.84 min; in data set [5], 12.6 min; in data set [6], 10.1 min. Further, the LC retention time was 10.7 min in [7]; 13 min in data set [8]; 8.59 min in [10]; 12.9 min in data set [11]; 12.3 min in [12]; 13.1 min in [13]. The LC retention time in data set [14] was 13.1 min; in data set [15], 15.4 min; in [16], 12.1 min; in [17], 1.29 min; in data set [18], 1.23 min; in [19] it was 1.61 min.
On to `Nc1nc2c(ncn2C2OC3COP(=O)(O)OC3C2O)c(=O)[nH]1` (stereo not drawn) [GUANOSINE 3',5'-CYCLIC MONOPHOSPHATE], for which the LC retention time in [1] was 2.67 min; in [20], 6.99 min; in [3] it was 7.21 min; in [4], 3.77 min; in data set [21] it was 7.35 min; in data set [5], 9.04 min. Moreover, the LC retention time in data set [22] was 5.71 min; in [6], 5.42 min; in [7] it was 6.2 min; in data set [8], 7.41 min; in data set [23], 11.1 min; in data set [10] it was 2.59 min. Besides, the LC retention time was 3.76 min in [24]; 3.22 min in data set [25]; 7.01 min in data set [11]; 6.68 min in data set [13]; 7.13 min in data set [26]; 2.72 min in data set [14]. The LC retention time is 1.41 min in [27], 12.3 min in [18] and 12.3 min in [19].
